The record followed here is PMC8842277, “Highly Antiproliferative Latonduine and Indolo[2,3-c]quinoline Derivatives: Complex Formation with Copper(II) Markedly Changes the Kinase Inhibitory Profile” (Journal of Medicinal Chemistry, 2022).

Broadly, the IC50 is the midpoint of a concentration-inhibition curve.

The structures appear in SMILES notation.

What all share (assay): Kinase panel screen and IC50
What all share (type): biochemical

One assay deals with CaMK-1 (Homo sapiens, UniProt Q14012). An excerpt: (§1) Figure 7 (see also Table S4) summarizes the results of this assay as a histogram plotting the percentage of the remaining enzyme activity (x-axis) as a function of added lead compound (HL^8: blue trace, 8: red trace) for each of the 50 enzymes assayed (y-axis). […] Thus, the coordination to copper(II) completely changes the kinase inhibition profile of HL^8.
(§2) Figure 7 Screening of HL^8 and 8 against 50 enzymes: histogram with % remaining activity on the x-axis plotted against the compound identifier (blue trace: HL^8 and red trace: 8) and enzyme identifier on the […]. The screen was carried out at a compound concentration of 10 μM, an enzyme concentration of 50 nM, and an ATP concentration of 100 μM.
(§3) Both compounds were screened against the respective enzymes, and IC50 values were determined.
(§4) All kinase assays were carried out using Multidrop 384’s at room temperature in a total assay volume of 25.5 μL. To plates containing 0.5 μL of HL^8 and 8, DMSO control or acid blank […], 15 μL of an enzyme mix containing enzyme […], and excess peptide/protein substrate in buffer was added. Compounds were pre-incubated in the presence of the enzyme and peptide/protein substrate for 5 min before initiation of the reaction by addition of 10 μL of ATP (final concentration selected for each kinase at 5, 20, or 50 μM). Assays were carried out for 30 min at room temperature before termination by the addition of 5 μL of orthophosphoric acid. The assay plates were then harvested onto P81 Unifilter Plates by a PerkinElmer Harvester and air dried. The dry Unifilter plates were then sealed on the addition of MicroScint O and were counted in PerkinElmer Topcount scintillation counters.
(§5) IC50 values were determined by the International Centre for Kinase Profiling at the University of Dundee according to standard protocols published elsewhere.[109],[110]

The target of a further assay is GSK3β (Homo sapiens, UniProt P49841).
Text: as §1, §2, §3, §4, §5

In the next assay the target is MSK1 (Homo sapiens, UniProt O75582).
Text: as §1, §2, §3, §4, §5

In a further assay the target is PIM1 (Homo sapiens, UniProt P11309).
Text: as §1, §2, §3, §4, §5

In the next assay the target is PKA (Homo sapiens, UniProt P17612).
Text: as §1, §2, §3, §4, §5

In another assay the target is SGK-1 (Homo sapiens, UniProt O00141).
Text: as §1, §2, §3, §4, §5

Sequence of GSK3β (P49841 whole entry): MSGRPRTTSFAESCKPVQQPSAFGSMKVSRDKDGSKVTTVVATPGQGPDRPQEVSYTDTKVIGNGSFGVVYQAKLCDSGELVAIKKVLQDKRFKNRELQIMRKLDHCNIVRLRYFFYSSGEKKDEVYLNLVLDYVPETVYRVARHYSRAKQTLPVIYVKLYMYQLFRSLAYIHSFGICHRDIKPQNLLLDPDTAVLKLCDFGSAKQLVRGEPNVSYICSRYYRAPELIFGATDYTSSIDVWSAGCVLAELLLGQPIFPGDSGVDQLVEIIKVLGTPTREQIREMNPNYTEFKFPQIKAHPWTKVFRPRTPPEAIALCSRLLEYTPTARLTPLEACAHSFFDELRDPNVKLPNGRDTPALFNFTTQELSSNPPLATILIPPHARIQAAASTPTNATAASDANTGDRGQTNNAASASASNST
Sequence of PIM1 (P11309 whole entry): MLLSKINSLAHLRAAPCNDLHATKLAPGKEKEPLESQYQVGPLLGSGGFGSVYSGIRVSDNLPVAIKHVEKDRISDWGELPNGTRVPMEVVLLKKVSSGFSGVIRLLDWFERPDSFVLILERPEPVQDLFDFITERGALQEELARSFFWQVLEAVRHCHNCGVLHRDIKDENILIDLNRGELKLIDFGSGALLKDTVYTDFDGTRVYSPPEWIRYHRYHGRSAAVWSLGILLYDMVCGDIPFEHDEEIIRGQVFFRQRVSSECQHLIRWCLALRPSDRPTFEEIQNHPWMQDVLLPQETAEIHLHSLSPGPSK
Sequence of SGK-1 (O00141 whole entry): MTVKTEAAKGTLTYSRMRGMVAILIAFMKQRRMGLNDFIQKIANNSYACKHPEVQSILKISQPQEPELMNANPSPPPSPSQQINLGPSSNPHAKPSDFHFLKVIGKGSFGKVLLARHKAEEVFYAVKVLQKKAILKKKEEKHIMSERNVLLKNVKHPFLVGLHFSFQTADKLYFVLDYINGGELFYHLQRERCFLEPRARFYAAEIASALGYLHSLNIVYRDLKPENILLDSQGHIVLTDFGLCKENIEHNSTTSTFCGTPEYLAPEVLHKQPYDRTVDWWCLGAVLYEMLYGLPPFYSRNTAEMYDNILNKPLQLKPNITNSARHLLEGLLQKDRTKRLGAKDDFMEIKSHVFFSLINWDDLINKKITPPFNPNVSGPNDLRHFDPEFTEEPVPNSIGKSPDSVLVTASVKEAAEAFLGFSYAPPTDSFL
Sequence of MSK1 (O75582 whole entry): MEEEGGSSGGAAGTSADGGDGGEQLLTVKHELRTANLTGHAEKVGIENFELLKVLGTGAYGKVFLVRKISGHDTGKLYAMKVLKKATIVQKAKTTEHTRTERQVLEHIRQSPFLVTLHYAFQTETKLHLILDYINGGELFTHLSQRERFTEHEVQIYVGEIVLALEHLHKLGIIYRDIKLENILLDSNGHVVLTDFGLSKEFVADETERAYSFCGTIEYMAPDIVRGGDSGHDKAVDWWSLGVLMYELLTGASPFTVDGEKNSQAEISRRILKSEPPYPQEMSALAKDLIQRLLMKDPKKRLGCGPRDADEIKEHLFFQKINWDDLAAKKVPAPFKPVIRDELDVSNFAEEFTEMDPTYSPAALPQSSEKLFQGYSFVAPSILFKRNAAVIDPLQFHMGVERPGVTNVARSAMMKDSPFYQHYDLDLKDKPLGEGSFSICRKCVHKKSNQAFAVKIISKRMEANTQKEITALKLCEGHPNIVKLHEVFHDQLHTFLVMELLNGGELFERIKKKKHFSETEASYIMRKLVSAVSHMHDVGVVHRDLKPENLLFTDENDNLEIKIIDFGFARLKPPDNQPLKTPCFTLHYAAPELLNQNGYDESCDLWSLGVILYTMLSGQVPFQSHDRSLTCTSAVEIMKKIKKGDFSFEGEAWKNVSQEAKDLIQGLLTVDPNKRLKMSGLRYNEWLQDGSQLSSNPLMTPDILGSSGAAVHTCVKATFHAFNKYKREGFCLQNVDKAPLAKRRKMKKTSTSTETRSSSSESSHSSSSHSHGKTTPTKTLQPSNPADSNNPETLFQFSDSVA

Consider `CC(=NNc1nc2ccccc2c2c1[nH]c1ccc(Br)cc12)c1ccc(CN2CCOCC2)cn1.[Cl][Cu][Cl]` [compound 8, CuCl2(HL^8)·H2O], for which the “% remaining activity” value on CaMK-1 (CaMK-1, 10 µM compound) was 9%; on GSK3β (GSK3β, 10 µM compound) it was 32%; at MSK1 (MSK1, 10 µM compound), 17%; on PIM1 (PIM1, 10 µM compound) it was 72%; at PKA (PKA, 10 µM compound), 10%; at SGK-1 (SGK-1, 10 µM compound), 5%. Moreover, the IC50 at CaMK-1 (read-out: IC50 against CaMK-1) turned out to be 0.75 µM; at GSK3β (read-out: IC50 against GSK3β), 1.64 µM; on MSK1 (read-out: IC50 against MSK1) it was 2.97 µM; on PKA (read-out: IC50 against PKA), 6.69 µM; on SGK-1 (read-out: IC50 against SGK-1), 8.45 µM. Also, on PIM1, the “IC50 against PIM-1” value was “did not register binding”.
